Like-named read-outs stand apart in the source and are kept apart here.
Tests used:
[1] = biological target: T1, rat GPR14 (U-II receptor) (Rattus norvegicus, UniProt P49684); assay: Rat UII Calcium Mobilization FLIPR Assay; assay type: cell-based; conditions: CHO cells transfected with rat GPR14; antagonist activity after 5 min incubation vs agonist (Ac)-CFWK(2-NaI)C-NH2 at 1 nM
T1 construct: expressed in transfected cells
T1 sequence (P49684 1-386): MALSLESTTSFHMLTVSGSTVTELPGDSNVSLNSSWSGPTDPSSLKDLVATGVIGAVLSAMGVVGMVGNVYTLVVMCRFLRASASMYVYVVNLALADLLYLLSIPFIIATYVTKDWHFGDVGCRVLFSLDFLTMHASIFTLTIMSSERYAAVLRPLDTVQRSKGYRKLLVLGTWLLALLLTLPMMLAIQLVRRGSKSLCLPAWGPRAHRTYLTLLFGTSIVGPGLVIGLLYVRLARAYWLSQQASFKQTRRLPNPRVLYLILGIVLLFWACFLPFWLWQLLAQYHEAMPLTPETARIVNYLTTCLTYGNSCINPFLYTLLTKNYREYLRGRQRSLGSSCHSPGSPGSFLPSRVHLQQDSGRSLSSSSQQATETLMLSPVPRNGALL
From the text: To derive these cells, the complete coding sequence of rat U-II (Genbank Accession No. U32673) was amplified by nested PCR from rat heart marathon-Ready cDNA. […] The PCR products were cloned into pcDNA3 (Invitrogen) digested with EcoR I and Xba I. Clones containing rat U-II receptor were verified by complete sequencing of the U-II receptor insert to ensure a lack of PCR-introduced errors. The constructed vector was transfected into CHO cells by using lipofectamine (GIBCO BRL). CHO cells with high expression of rat U-II receptor were selected and established as stable cell lines by using G418. CHO cells were seeded at 25,000 cells per well into 96-well, black-wall, clear-bottom microtiter plates 24 h before assay. Cells in culture media (DMEM/F12 containing 15 mM HEPES, L-glutamine, pyridoxine hydrochloride; 10% fetal bovine serum; 1 mg/mL G418 sulfate; antibiotic-antimycotic; pH 7.4) were loaded with proprietary dye, from the FLIPR Calcium Assay Kit (Molecular Devices), prepared in assay buffer (Hanks Balanced Salts Solution, 20 mM HEPES, 0.1% BSA, 2.5 mM probenecid, pH 7.4), and incubated for 1 h at 37° C. Calcium mobilization determinations were performed at room temperature (23° C.).

[2] = biological target: T2, UT receptors in HSMM (Human Skeletal Muscle Myoblasts) (Homo sapiens, UniProt Q9UKP6); assay: Human Radioligand Binding Assay ((^125I)-U-II binding to intact HSMM)
T2 sequence (Q9UKP6 1-389): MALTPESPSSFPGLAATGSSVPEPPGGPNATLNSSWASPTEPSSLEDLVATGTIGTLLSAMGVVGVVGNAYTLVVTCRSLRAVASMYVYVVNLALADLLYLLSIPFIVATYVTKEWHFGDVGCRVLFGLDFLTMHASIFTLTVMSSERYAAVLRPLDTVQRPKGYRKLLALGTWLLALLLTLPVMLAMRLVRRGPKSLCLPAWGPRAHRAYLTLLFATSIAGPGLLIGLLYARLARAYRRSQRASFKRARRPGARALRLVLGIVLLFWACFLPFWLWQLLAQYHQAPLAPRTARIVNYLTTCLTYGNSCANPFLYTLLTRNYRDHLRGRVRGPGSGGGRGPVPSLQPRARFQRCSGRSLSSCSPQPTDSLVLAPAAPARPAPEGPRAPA

[3] = biological target: T3, Human UII (U-II receptor) in 6D9 human rhabdomyosarcoma cells (Homo sapiens, UniProt Q9UKP6); assay: Human UII Calcium Mobilization Assay; assay type: cell-based
T3 construct: 6D9: isolated by dilution subcloning of RMS13 cells, ATCC® Number: CRL-2061; host or cells: 6D9 human rhabdomyosarcoma cells (subclone of RMS13)
T3 sequence (Q9UKP6 1-389): T2 sequence (Q9UKP6 1-389)
Procedure: 25 μL of dye solution was added to the wells such that the final liquid volume before agonist/antagonist treatment was 50 μL for all assays. The cell plates were incubated at 37° C. for 45 minutes and the fluorescence intensity was measured on a Fluorometric Imaging Plate Reader (FLIPR^TETRA, Molecular Devices, Sunnyvale, Calif.).
Antagonist and agonist U-II were added at room temperature on the FLIPR^TETRA, and the fluorescence intensity before and after addition was measured over a period of 4 minutes. The dye incubation time and temperature as well as instrument setting was adjusted so the fluorescence intensity could be compared between plates on the same day. EC50 and IC50 were analyzed using GraphPad Prism 4 software (GraphPad Software Inc., San Diego, Calif.).
For assays, U-II agonist, U-II antagonist and urantide were diluted with HBSS/HEPES containing 0.01% FBS.
Test compounds were dissolved in DMSO at 10 mM concentration. The serial dilutions were carried out in HBSS/HEPES. The highest final DMSO concentration was at 0.1%.

[4] = 6D9 human rhabdomyosarcoma cells, FLIPR TETRA, average, read-out: Human UII Ca+ Mobilization Average IC50
[5] = read-out: Human UII Average Binding Ki, intact HSMM, 0.150 nM (^125I)-U-II, 3 h, 25° C.

Compound	IC50 [1] [µM]	Ki [2] [µM]	IC50 [3, 4] [µM]	Ki [2, 5] [µM]	IC50 [3] [µM]
CCN1CCN(c2cccc3c2CN([C@H](CCCOCc2ccccc2F)c2ccc(OC)c(OC)c2)C3=O)CC1 [Cpd 51, 2-[(1R)-1-(3,4-dimethoxy-phenyl)-4-(2-fluoro-benzyloxy)-butyl]-4-(4-ethyl-piperazin-1-yl)-2,3-dihydro-isoindol-1-one]	2.55	> 0.3	> 10		
CCN1CCN(c2cccc3c2CN([C@H](CCCNS(N)(=O)=O)c2ccc(OC)c(OC)c2)C3=O)CC1 [Cpd 58, aminosulfonic acid {(4R)-4-(3,4-dimethoxy-phenyl)-4-[4-(4-ethyl-piperazin-1-yl)-1-oxo-1,3-dihydro-isoindol-2-yl]-butyl}-amide]	0.081	0.109	0.449		
CCN1CCN(c2cccc3c2CN([C@H](CCCNc2cccc[n+]2[O-])c2ccc(OC)c(OC)c2)C3=O)CC1 [Cpd 93, 2-[(1R)-1-(3,4-dimethoxy-phenyl)-4-(1-oxy-pyridin-2-ylamino)-butyl]-4-(4-ethyl-piperazin-1-yl)-2,3-dihydro-isoindol-1-one]	0.082	0.125	0.555		
CCN1CCN(c2cccc3c2CN([C@H](CCCNC(=O)C(C)(C)C)c2ccc(OC)c(OC)c2)C3=O)CC1 [Cpd 83, N-{(4R)-4-(3,4-dimethoxy-phenyl)-4-[4-(4-ethyl-piperazin-1-yl)-1-oxo-1,3-dihydro-isoindol-2-yl]-butyl}-2,2-dimethyl-propionamide]	0.045	0.017	0.2		
COc1ccc([C@@H](CCCn2ccnc2)N2Cc3c(cccc3N3CCNCC3)C2=O)cc1OC [Cpd 35, 2-[(1R)-1-(3,4-dimethoxy-phenyl)-4-imidazol-1-yl-butyl]-4-piperazin-1-yl-2,3-dihydro-isoindol-1-one]	1.9	1.1	> 10		
CCN1CCN(c2cccc3c2CN([C@H](CCCNC(N)=O)c2ccc(OC)c(OC)c2)C3=O)CC1 [Cpd 64, {(4R)-4-(3,4-dimethoxy-phenyl)-4-[4-(4-ethyl-piperazin-1-yl)-1-oxo-1,3-dihydro-isoindol-2-yl]-butyl}-urea]	0.143	> 0.3	3.66		
CCN1CCN(c2cccc3c2CN([C@H](CCCNC(=O)c2cccs2)c2ccc(OC)c(OC)c2)C3=O)CC1 [Cpd 81, thiophene-2-carboxylic acid {(4R)-4-(3,4-dimethoxy-phenyl)-4-[4-(4-ethyl-piperazin-1-yl)-1-oxo-1,3-dihydro-isoindol-2-yl]-butyl}-amide]	0.007			0.018	0.137
CCN1CCN(c2cccc3c2CN([C@H](CCCOCc2ccccc2Cl)c2ccc(OC)c(OC)c2)C3=O)CC1 [Cpd 47, 2-[(1R)-4-(2-chloro-benzyloxy)-1-(3,4-dimethoxy-phenyl)-butyl]-4-(4-ethyl-piperazin-1-yl)-2,3-dihydro-isoindol-1-one]	1.3	> 0.3	6.14		
COc1ccc([C@@H](CCCNS(=O)(=O)c2cccs2)N2Cc3c(cccc3N3CCN(C(C)C)CC3)C2=O)cc1OC [Cpd 65, thiophene-2-sulfonic acid {(4R)-4-(3,4-dimethoxy-phenyl)-4-[4-(4-isopropyl-piperazin-1-yl)-1-oxo-1,3-dihydro-isoindol-2-yl]-butyl}-amide]	0.003		0.053	0.004	
CCN1CCN(c2cccc3c2CN([C@H](CCCNC(=O)c2nccn2C)c2ccc(OC)c(OC)c2)C3=O)CC1 [Cpd 56, 1-methyl-1H-imidazole-2-carboxylic acid {(4R)-4-(3,4-dimethoxy-phenyl)-4-[4-(4-ethyl-piperazin-1-yl)-1-oxo-1,3-dihydro-isoindol-2-yl]-butyl}-amide]	0.079	0.125	0.699		

More lines, main results first:

IC50 [1] [µM]	Ki [2] [µM]	IC50 [3, 4] [µM]	Compound	Ki [2, 5] [µM]	IC50 [3] [µM]
0.003	0.013	0.187	CCN1CCN(c2cccc3c2CN([C@H](CCCNc2nccc(C(F)(F)F)n2)c2ccc(OC)c(OC)c2)C3=O)CC1 [Cpd 22, 2-[(1R)-1-(3,4-dimethoxy-phenyl)-4-(4-trifluoromethyl-pyrimidin-2-ylamino)-butyl]-4-(4-ethyl-piperazin-1-yl)-2,3-dihydro-isoindol-1-one]		
0.012	0.054	0.844	CCN1CCN(c2cccc3c2CN([C@H](CCCNc2nc(C)cc(C)n2)c2ccc(OC)c(OC)c2)C3=O)CC1 [Cpd 12, 2-[(1R)-1-(3,4-dimethoxy-phenyl)-4-(4,6-dimethyl-pyrimidin-2-ylamino)-butyl]-4-(4-ethyl-piperazin-1-yl)-2,3-dihydro-isoindol-1-one]		
0.001	0.062	0.496	CCN1CCN(c2cccc3c2CN([C@H](CCCNc2nccc(Cl)n2)c2ccc(OC)c(OC)c2)C3=O)CC1 [Cpd 11, 2-[(1R)-4-(4-chloro-pyrimidin-2-ylamino)-1-(3,4-dimethoxy-phenyl)-butyl]-4-(4-ethyl-piperazin-1-yl)-2,3-dihydro-isoindol-1-one]		
0.037	0.242	2.59	CCN1CCN(c2cccc3c2CN([C@H](CCCNCC(C)(C)C)c2ccc(OC)c(OC)c2)C3=O)CC1 [Cpd 75, 2-[(1R)-1-(3,4-dimethoxy-phenyl)-4-(2,2-dimethyl-propylamino)-butyl]-4-(4-ethyl-piperazin-1-yl)-2,3-dihydro-isoindol-1-one]		
0.004	0.059	0.105	CCN1CCN(c2cccc3c2CN([C@H](CCCN(C)Cc2cccc(F)c2)c2ccc(OC)c(OC)c2)C3=O)CC1 [Cpd 98, 2-{(1R)-1-(3,4-dimethoxy-phenyl)-4-[(3-fluoro-benzyl)-methyl-amino]-butyl}-4-(4-ethyl-piperazin-1-yl)-2,3-dihydro-isoindol-1-one]		
0.016	0.045	0.857	COc1ccc([C@@H](CCCNc2nccc(C(F)(F)F)n2)N2Cc3c(cccc3N3CCN(Cc4ccccc4)CC3)C2=O)cc1OC [Cpd 5, 4-(4-benzyl-piperazin-1-yl)-2-[(1R)-1-(3,4-dimethoxy-phenyl)-4-(4-trifluoromethyl-pyrimidin-2-ylamino)-butyl]-2,3-dihydro-isoindol-1-one]		
0.002	0.013	0.064	CCN1CCN(c2cccc3c2CN([C@H](CCCNS(=O)(=O)c2cnc(C)n2C)c2ccc(OC)c(OC)c2)C3=O)CC1 [Cpd 49, 2,3-dimethyl-3H-imidazole-4-sulfonic acid {(4R)-4-(3,4-dimethoxy-phenyl)-4-[4-(4-ethyl-piperazin-1-yl)-1-oxo-1,3-dihydro-isoindol-2-yl]-butyl}-amide]		
0.023	0.084	0.842	CCN1CCN(c2cccc3c2CN([C@H](CCCNC(=O)Nc2ccccc2)c2ccc(OC)c(OC)c2)C3=O)CC1 [Cpd 66, 1-{(4R)-4-(3,4-dimethoxy-phenyl)-4-[4-(4-ethyl-piperazin-1-yl)-1-oxo-1,3-dihydro-isoindol-2-yl]-butyl}-3-phenyl-urea]		

Source: patent US8008299B2, “Urotensin II receptor antagonists” (Janssen Pharmaceutica, N.V., priority 2007, dated 2011)
